Numbers after ± are expanded uncertainties.
What was measured:
[1] = Crystal; DTA
[2] = Molar enthalpy of transition or fusion; settings: Crystal; DSC

SMILES	Normal melting temperature [1] [°C]	Molar enthalpy of transition or fusion [2] [kcal/mol]
C[C@H]1OC(=O)[C@@H](C)OC1=O [(3R,6R)-3,6-dimethyl-1,4-dioxane-2,5-dione]	97.23 ± 1.1	3.87 ± 0.0956
C[C@@H]1OC(=O)[C@H](C)OC1=O [(3S,6S)-3,6-dimethyl-1,4-dioxane-2,5-dione]	97.82 ± 1.1	3.87 ± 0.0956

Reference: the NIST ThermoML archive (doi:10.1021/je301014d)
